What was measured:
[1] = target: T1, α4β1 integrin (Jurkat T-cell adhesion to IL-1 stimulated endothelial cell monolayers) (Homo sapiens, UniProt P05556+P13612); assay: Jurkat-endothelial cell adhesion assay (Jurkat EC); type: cell-based; settings: Jurkat cells on IL-1 stimulated human umbilical vein endothelial cells; read-out: JK/EC (Jurkat EC Assay IC50 value range)
T1 construct: a T-cell line, Jurkat, known to express the α4β1 integrin; host or cells: Jurkat T-cell line
Outline: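 Adhesion was expressed as percent of compound-free fluorescence after 20 min at 37° C (following 5 min settling on ice) of BCECF-loaded Jurkat T cells on washed HUVEC monolayers. The endothelium, passage 6 or lower, had received 0.1 ng/ml recombinant IL-1 for 4 hr at 37° C; compound was premixed with the T cells, typically at 100, 20, 5 and 1.25 μM.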

[2] = target: T2, α4β1 integrin (Jurkat cell adhesion to immobilized CS-1 derived peptide CLHPGEILDVPST) (Homo sapiens, UniProt P05556+P13612); assay: Jurkat-CS-1 assay; type: cell-based; settings: Jurkat cells on CS-1 peptide coated plates; read-out: JK/CS-1 (Jurkat CS-1 Assay IC50 value range)
T2 construct: 100 μl of Jurkat cells (2.5×10^6 cells/ml) in DMEM plus BSA; host or cells: Jurkat T-cell line
T2 sequence (P13612 34-1032): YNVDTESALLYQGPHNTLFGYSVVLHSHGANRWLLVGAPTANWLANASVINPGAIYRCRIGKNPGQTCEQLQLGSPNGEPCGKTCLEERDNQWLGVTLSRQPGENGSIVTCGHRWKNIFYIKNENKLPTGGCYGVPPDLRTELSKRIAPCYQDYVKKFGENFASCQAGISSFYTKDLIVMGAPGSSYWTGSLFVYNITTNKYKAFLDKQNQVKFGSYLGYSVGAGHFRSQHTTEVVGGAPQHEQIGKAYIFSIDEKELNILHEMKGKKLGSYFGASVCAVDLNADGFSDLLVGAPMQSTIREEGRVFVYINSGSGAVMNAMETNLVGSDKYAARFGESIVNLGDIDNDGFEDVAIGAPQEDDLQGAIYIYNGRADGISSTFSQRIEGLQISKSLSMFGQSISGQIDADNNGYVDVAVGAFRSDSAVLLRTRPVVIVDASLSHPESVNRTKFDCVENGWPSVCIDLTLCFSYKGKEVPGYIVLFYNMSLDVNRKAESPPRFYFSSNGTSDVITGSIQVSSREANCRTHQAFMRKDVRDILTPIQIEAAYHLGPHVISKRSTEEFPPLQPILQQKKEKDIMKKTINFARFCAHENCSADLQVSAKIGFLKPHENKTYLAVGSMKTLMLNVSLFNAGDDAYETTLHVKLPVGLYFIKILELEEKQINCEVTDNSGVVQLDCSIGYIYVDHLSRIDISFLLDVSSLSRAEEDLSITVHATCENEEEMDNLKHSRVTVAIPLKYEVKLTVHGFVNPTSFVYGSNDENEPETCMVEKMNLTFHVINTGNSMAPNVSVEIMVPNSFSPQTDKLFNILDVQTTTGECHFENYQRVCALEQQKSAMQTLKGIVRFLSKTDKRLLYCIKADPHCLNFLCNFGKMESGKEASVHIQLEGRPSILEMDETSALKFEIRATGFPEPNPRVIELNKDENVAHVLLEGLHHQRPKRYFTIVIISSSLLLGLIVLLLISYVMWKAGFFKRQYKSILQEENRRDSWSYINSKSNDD
T2 sequence (P05556 21-798): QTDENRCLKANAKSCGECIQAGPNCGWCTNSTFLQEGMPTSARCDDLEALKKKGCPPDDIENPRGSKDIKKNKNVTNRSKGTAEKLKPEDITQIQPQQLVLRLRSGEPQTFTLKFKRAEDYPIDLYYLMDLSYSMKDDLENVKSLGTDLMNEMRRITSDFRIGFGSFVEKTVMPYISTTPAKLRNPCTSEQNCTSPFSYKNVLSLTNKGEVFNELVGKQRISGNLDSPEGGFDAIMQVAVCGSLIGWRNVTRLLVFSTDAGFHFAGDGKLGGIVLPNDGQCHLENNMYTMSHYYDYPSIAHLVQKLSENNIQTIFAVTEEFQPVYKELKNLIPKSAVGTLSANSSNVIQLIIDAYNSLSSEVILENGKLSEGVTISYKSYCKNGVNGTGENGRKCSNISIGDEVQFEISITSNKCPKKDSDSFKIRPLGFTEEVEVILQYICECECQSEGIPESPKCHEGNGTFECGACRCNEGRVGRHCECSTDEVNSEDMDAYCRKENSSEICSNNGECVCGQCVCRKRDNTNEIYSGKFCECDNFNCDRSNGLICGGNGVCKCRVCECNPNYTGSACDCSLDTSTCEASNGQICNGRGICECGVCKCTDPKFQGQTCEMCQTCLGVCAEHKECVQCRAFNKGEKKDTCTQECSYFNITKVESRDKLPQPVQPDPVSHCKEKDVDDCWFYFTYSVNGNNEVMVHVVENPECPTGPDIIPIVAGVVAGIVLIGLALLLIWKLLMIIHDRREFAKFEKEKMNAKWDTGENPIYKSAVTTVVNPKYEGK
Outline: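 CS-1 peptide was SPDP-crosslinked onto HSA-coated plates and blocked with BSA. Jurkat cells (2.5×10^6 cells/ml) in DMEM/BSA were mixed with compound, generally at 100, 20, 5 and 1.25 μM, and allowed to adhere for 1 hr at 37° C. Bound cells were fixed, stained with toluidine blue and quantified by OD590.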

[3] = test system: VLA-4 integrin-dependent eosinophil infiltration; assay: Dextran pleurisy model (intrapleural dextran, pleural leukocyte infiltration); type: in vivo, C57BL/6 mice; settings: dose 50 × 2 iv; mouse, 4 h after intrapleural dextran
Procedure: Animals, Housing and Viral Testing:
C57BL/6 mice (Jackson, Bar Harbor, Me.), 6-8 weeks old, weighing 20-25 g were used throughout. All mice were acclimated for at least 7-14 days after arrival and maintained under controlled temperature (20-22° C.) and a 12 hr daily light cycle (6.00 A.M.-6.00 P.M.). Mice were housed in laminar flow racks and checked biweekly for viral infections (mouse hepatitis virus, minute virus of mice, rodent orphan parvovirus, Sendai) with kits obtained from Oreganon Teknika (Durham, N.C.) using established enzyme-linked immunoabsorbent assays. Mice testing positive for any of the above were omitted from the study. […]
Quantitation of Pleural Inflammatory Leukocyte Responses: […]
The pleural cavities of mice receiving either no intrapleural injection, or saline were washed and the cells counted in the same way to estimate baseline or saline-induced pleural leukocyte counts respectively. […]
The following compounds were tested for their inhibitory effects on dextran-induced leukocyte infiltration: Examples 3, 8, 9, 10, 12, 16, 37, 62, 66, 67, 99, 100, 111, 113, 115, 127, 131, 141, 184, 185, 192, PBS (saline) was administered iv. as a control. Inhibition of eosinophil infiltration, which was suppressed by anti-alpha-4 Mab (PS/2, 50%), was used as a readout of VLA-4 antagonist activity of the compounds tested. […]

T1 sequence (P13612 34-1032): as the sequence (P13612 34-1032) above
T1 sequence (P05556 21-798): as the sequence (P05556 21-798) above

Row | Compound | IC50 [1] [nM] | IC50 [2] [nM] | melting point | % Inhibition of Eosinophil infiltration (Eos) [3]
1 | COC(=O)[C@H](Cc1ccc(NC(=O)c2c(Cl)cccc2Cl)cc1)NC(=O)[C@H]1CSCN1C(=O)N1CCOCC1 [Example 56, 4-[(2,6-Dichlorobenzoyl)amino]-N-[[(4S)-3-(4-morpholinylcarbonyl)-4-thiazolidinyl]carbonyl]-L-phenylalanine Methyl Ester] | ≥ 1000 | 50 to 750 | 223 to 225 °C | 
2 | COC(=O)[C@H](Cc1ccc(NC(=O)c2c(Cl)cccc2Cl)cc1)NC(=O)[C@H]1CSCN1C(=O)N(CCO)CCO [Example 57, N-[[(4S)-3-[[bis(2-Hydroxyethyl)amino]carbonyl]-4-thiazolidinyl]carbonyl]-4-[(2,6-dichlorobenzoyl)amino]-L-phenylalanine Methyl Ester] | ≥ 1000 | ≥ 750 | 105 to 107 °C | 
3 | CCOC(=O)N1[C@@H](C(=O)N[C@@H](Cc2ccc(NC(=O)c3c(Cl)cccc3Cl)cc2)C(=O)OC)C[C@@H]1C(=O)OC [Example 140, [2R-(2α,4β(S*)]-4-[[[1-[[4-[(2,6-Dichlorobenzoyl)amino]phenyl]methyl]-2-methoxy-2-oxoethyl]amino]carbonyl]-1,2-azetidinedicarboxylic Acid 1-Ethyl-2-methyl Diester] | ≥ 1000 | ≥ 750 | 97 to 99 °C | 
4 | COC(=O)[C@H](Cc1ccc(NC(=O)c2c(Cl)cccc2Cl)cc1)NC(=O)[C@@H]1CCN1C(=O)OC(C)(C)C [Example 142, [2S-(R*,R*)]-2-[[[1-[4-[(2,6-Dichlorobenzoyl)amino]phenylmethyl]-2-methoxy-2-oxoethyl]amino]carbonyl]-1-azetidinecarboxylic Acid 1-(1,1-Dimethyl)ethyl Ester] | ≥ 1000 | ≥ 750 | 106 to 108 °C | 
5 | COC(=O)[C@H](Cc1ccc(NC(=O)c2c(Cl)cccc2Cl)cc1)NC(=O)[C@@H]1CCN1 [Example 158, [2S-(R*,R*)]-2-[[[1-[[4-[(2,6-Dichlorobenzoyl)amino]phenyl]methyl]-2-methoxy-2-oxoethyl]amino]carbonyl]azetidine] | ≥ 1000 | ≥ 750 | 113 to 115 °C | 
6 | CS(=O)(=O)N1CSC[C@@H]1C(=O)N[C@@H](Cc1ccc(OCc2c(Cl)cccc2Cl)cc1)C(N)=O [Example 159] | ≥ 1000 | ≥ 750 | 228 to 230 °C | 
7 | [2R-[1(S*),2α,4β(S*)]]-4-[[[1-Carboxy-2-[4-[(2,6-dichlorobenzoyl)amino]phenyl]ethyl]-amino]carbonyl]-1-(1-phenylethyl)-2-azetidincearboxylic Acid, Dilithium Salt [Example 131] | 250 to 1000 | 50 to 750 |  | C (C<19)

The next lines start with results.

Row | IC50 [1] [nM] | IC50 [2] [nM] | melting point | Compound | % Inhibition of Eosinophil infiltration (Eos) [3]
8 | ≤ 250 | ≤ 50 | 118 to 121 °C | CCOC(=O)N1CSC[C@@H]1C(=O)N[C@@H](Cc1ccc(NC(=O)c2c(Cl)cccc2Cl)cc1)C(=O)O (relative stereo) [Example 12, [S-(R*,R*)]-4-[[[1-Carboxy-2-[4-[(2,6-dichlorobenzoyl)amino]phenyl]ethyl]amino]carbonyl]-3-thiazolidinecarboxylic Acid 3-Ethyl Ester] | 
9 | ≤ 250 | ≤ 50 | 138 to 140 °C | COC(=O)[C@H](Cc1ccc(OCc2c(Cl)cccc2Cl)cc1)NC(=O)[C@H]1CSCN1C(=O)OCCN1CCOCC1 (relative stereo) [Example 36, [S-(R*,R*)]-4-[[[1-[4-[(2,6-Dichlorophenyl)methoxy]phenyl]methyl]-2-methoxy-2-oxoethyl]amino]carbonyl]-3-thiazolidinecarboxylic Acid 3-[2-(4-Morpholinyl)ethyl]ester] | 
10 | ≥ 1000 | ≥ 750 | 123 to 125 °C | COC(=O)[C@H](Cc1ccc(OCc2c(Cl)cccc2Cl)cc1)NC(=O)[C@H]1CSCN1C(=O)OCc1ccccn1 (relative stereo) [Example 38, [S-(R*,R*)]-4-[[[1-[4-[(2,6-Dichlorophenyl)methoxy]phenyl]methyl]-2-methoxy-2-oxoethyl]amino]carbonyl]-3-thiazolidinecarboxylic Acid 3-[(2-Pyridinyl)methyl]ester] | 
11 | ≤ 250 | 50 to 750 | 130 to 132 °C | COC(=O)[C@H](Cc1ccc(OCc2c(Cl)cccc2Cl)cc1)NC(=O)[C@H]1CSCN1C(=O)OCCN1CCCC1 (relative stereo) [Example 39, [S-(R*,R*)]-4-[[[1-[4-[(2,6-Dichlorophenyl)methoxy]phenyl]methyl]-2-methoxy-2-oxoethyl]amino]carbonyl]-3-thiazolidinecarboxylic Acid 3-[2-(1-Pyrrolidinyl)ethyl]ester] | 
12 | ≥ 1000 | ≥ 750 | 80 °C | CN(CCc1ccccn1)C(=O)N1CSC[C@@H]1C(=O)N[C@@H](Cc1ccc(OCc2c(Cl)cccc2Cl)cc1)C(=O)O (relative stereo) [Example 153, [S-(R*,R*)]-4-[[[1-Carboxy-2-[4-[(2,6-dichlorophenyl)methoxy]phenyl]ethyl]amino]-carbonyl]-N-methyl-N-[2-(2-pyridinyl)ethyl]-3-thiazolidinecarboxamide] | 
13 | ≥ 1000 | 50 to 750 | 125 to 126.5 °C | COC(=O)[C@H](Cc1ccc(OCc2c(Cl)cccc2Cl)cc1)NC(=O)[C@H]1CSCN1C(=O)OC1CCOC1 (relative stereo) [Example 156, [S-(R*,R*)]-4-[[[1-[[4-[(2,6-Dichlorophenyl)methoxy]phenyl]methyl]-2-methoxy-2-oxoethyl]amino]carbonyl]-3-thiazolidinecarboxylic Acid 3-(3-Tetrahydrofuranyl)ester] | 
14 | ≥ 1000 | 50 to 750 | 80 to 90 °C (dec.) | COC(=O)[C@H](Cc1ccc(NC(=O)c2c(Cl)cccc2Cl)cc1)NC(=O)[C@H]1CSCN1C(=O)N(C)CCc1ccccn1 [Example 54, 4-[(2,6-Dichlorobenzoyl)amino]-N-[[(4S)-3-[[methyl[2-(2-pyridinyl)ethyl]amino]carbonyl]-4-thiazoidinyl]carbonyl]-L-phenylalanine Methyl Ester] | 

— patent US6685617B1, “Inhibitors of α4β1 mediated cell adhesion” (Pharmacia & Upjohn Company, priority 1998, dated 2004)
